Earlier results on one compound are cited in patent US20250205255A1, “PHOSPHOLIPID COMPOSITIONS FOR TREATING INFECTIONS AND INFLAMMATION” (Celestial Therapeutics, Inc., priority 2022, published 2025).

In series [1] the test system is Toll-like receptor 4 (TLR4) interacting proteins CD14 and MD-2. Conditions: through direct interactions with CD14 and MD-2.
Series [2] deals with Respiratory Syncytial Virus (RSV). The settings on record: bronchial epithelial cells.

As for `CCCCCCCC/C=C\CCCCCCCC(=O)O[C@H](COC(=O)CCCCCCCCCCCCCCC)COP(=O)(O)OCC(O)CO` (mixture of isomers) [POPG, 1-Palmitoy-2-loleoyl-sn-glycerol-3-phospho-(1′-rac-glycerol)], in series [1], the “inflammatory responses induced by lipopolysaccharide” value is reported as “markedly attenuate”. Moreover, the “cytopathic effects induced by RSV” value in series [2] is recorded as “significantly inhibited”. Moreover, in series [2] (induced by RSV), the interleukin-6 production result is recorded as “significantly inhibited” and the interleukin-8 production result is recorded as “significantly inhibited”.
